The results in this text go back to article PMC9946977, “Identification of linderalactone as a natural inhibitor of SHP2 to ameliorate CCl4-induced liver fibrosis” (Frontiers in Pharmacology, 2023).

The target in one experiment is T1, SHP2 PTP domain (Homo sapiens, UniProt Q06124).
T1 construct: Human SHP2 PTP domain (A237–I529) expression constructs; His-tag; made in house; host or cells: E. coli BL21 (DE3)
T1 sequence (Q06124 237-529): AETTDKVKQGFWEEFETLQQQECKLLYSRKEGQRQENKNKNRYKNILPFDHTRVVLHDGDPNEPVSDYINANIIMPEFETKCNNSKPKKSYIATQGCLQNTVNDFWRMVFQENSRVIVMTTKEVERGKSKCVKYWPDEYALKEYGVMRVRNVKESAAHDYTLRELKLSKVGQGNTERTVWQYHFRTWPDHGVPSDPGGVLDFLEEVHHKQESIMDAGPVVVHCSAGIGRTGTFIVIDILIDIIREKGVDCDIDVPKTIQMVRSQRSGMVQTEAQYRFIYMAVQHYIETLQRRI
Description: SHP2 inhibition assay (DiFMUP) with SHP2-PTP; HTS and dose-response. In kind it is biochemical. As to the method: Human SHP2 PTP domain (A237–I529) expression constructs were engineered by cloning PTPN11 (NP_002825.3) into the pET30 plasmid with a His-tag to support further protein purification. The K366A/Q510A double mutation was introduced into the wild-type template using a site-directed mutagenesis kit (E0554S; New England Biolabs). The expression constructs were sequenced and transformed into BL21 (DE3)-competent cells. E. coli cells were grown at 37°C in an LB culture medium in the presence of […] kanamycin until the OD600 reached 1.0. The medium was then cooled to 18°C and 1 mM isopropyl ß-D-1-thiogalactopyranoside (IPTG) was added to induce protein expression overnight.
A surrogate phosphatase substrate, 6,8-difluoro-4-methylumbelliferyl phosphate (DiFMUP, Thermo Fisher, #D22065), was used to monitor the catalytic activity of SHP2 in a prompt fluorescence assay format. Specifically, the DiFMUP phosphatase assay was performed at 20°C in a 384-well Griener CELLSTAR black polystyrene plate in the buffer condition of 60 mM HEPES (pH7.5), 75 mM NaCl, 75 mM KCl, 1 mM EDTA, 0.05% Tween-20, 5 mM dithiothreitol (DTT). The final reaction volume was 25 μL. NP compound libraries were obtained from TargetMol at a stock concentration of 10 mM, dissolved in DMSO. The purity of the active compound LIN used in this study is 96.27% as tested by HPLC analysis. The HPLC traces is shown in Supporting Information. We co-incubated 0.5 nM of SHP2-PTP enzyme with tested NPs for 30 min at 20°C, followed by the addition of DiFMUP into the reaction. After 30 min, 5 μL of bpV(phen) solution was added to quench the dephosphorylation reaction. The signals were read on a plate reader (SpectraMax iD5, Molecular Devices). The excitation and emission wavelengths were 340 and 450 nm, respectively. The inhibitor dose-response curves were evaluated using a normalised IC50 regression curve fitting with control-based normalisation. For the full-length SHP2 inhibition assay, 0.5 μM of a bisphosphorylated pIRS-1 peptide (ChinaPeptides Ltd. Shanghai) was added for partial SHP2 activation. […]

Another experiment deals with T2, full-length SHP2 (Homo sapiens, UniProt Q06124).
T2 construct: used for the expression and purification of the full-length SHP2; made in house; host or cells: E. coli (similar protocol as for SHP2-PTP)
T2 sequence (Q06124 1-593): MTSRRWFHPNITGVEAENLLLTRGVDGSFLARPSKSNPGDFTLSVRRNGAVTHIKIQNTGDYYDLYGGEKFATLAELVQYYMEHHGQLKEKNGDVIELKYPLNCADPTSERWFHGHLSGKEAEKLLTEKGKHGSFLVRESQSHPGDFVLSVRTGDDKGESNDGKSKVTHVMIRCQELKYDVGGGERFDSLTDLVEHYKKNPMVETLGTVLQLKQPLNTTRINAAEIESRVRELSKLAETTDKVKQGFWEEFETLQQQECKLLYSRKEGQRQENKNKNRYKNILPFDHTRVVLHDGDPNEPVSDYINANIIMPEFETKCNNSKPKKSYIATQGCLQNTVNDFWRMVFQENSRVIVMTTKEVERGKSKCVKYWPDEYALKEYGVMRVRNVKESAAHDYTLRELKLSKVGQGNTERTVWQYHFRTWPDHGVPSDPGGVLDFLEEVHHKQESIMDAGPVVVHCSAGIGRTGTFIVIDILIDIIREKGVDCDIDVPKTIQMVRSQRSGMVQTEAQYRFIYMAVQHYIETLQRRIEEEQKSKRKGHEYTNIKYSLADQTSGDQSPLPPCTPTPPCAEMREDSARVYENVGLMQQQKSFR
Put plainly: full-length SHP2 inhibition assay (DiFMUP, pIRS-1 activated). In kind it is biochemical. The settings on record: activating peptide p-IRS-1 supplemented; read-out: IC50 on full length SHP2 (SHP2-FL). As to the method: Cell pellets were collected and suspended in a buffer of 50 mM Tris-HCl (Ph = 8.5), 150 mM NaCl supplemented with 10% glycerol, and lysed by homogeniser (JN-BIO, China). After centrifugation, the collected supernatants were diluted with a Tris-HCl buffer (pH = 8.5) containing 50 mM imidazole and 150 mM NaCl and then loaded onto a Ni-NTA column (#88221, Thermo). The bound SHP2 protein was eluted with a buffer containing 150 and 300 mM imidazole. The pooled protein was loaded onto a HiTrap Q column after dilution in 25 mM Tris-HCl buffer. After elution using a linear gradient of NaCl (0–0.5 M), peak fractions containing the SHP2 protein were concentrated and applied to a gel filtration Superdex 200 column (GE Healthcare). Purified SHP2-PTP proteins were flash-frozen and stored. Similar expression and purification protocols were used for the expression and purification of the full-length SHP2 and SHP2-PTP ^K366A/Q510A double mutants.
A surrogate phosphatase substrate, 6,8-difluoro-4-methylumbelliferyl phosphate (DiFMUP, Thermo Fisher, #D22065), was used to monitor the catalytic activity of SHP2 in a prompt fluorescence assay format. […] The signals were read on a plate reader (SpectraMax iD5, Molecular Devices). […] The inhibitor dose-response curves were evaluated using a normalised IC50 regression curve fitting with control-based normalisation. […]

What is called IC50 is the concentration at which inhibition is half-maximal. For `C/C1=C\CCC2=C[C@@H](OC2=O)c2c(C)coc2C1` [LIN, linderalactone], the IC50 was determined as 1870 ± 850 nM on SHP2 PTP domain (0.5 nM SHP2-PTP, DiFMUP substrate, 30 min co-incubation at 20°C, read-out: IC50 against the SHP2 PTP domain) and 1980 nM on full-length SHP2. The “inhibitory activity in verification experiment of initial hits” value on SHP2 PTP domain (dose-response confirmation of HTS hits) is “best inhibitory activity among the screened hits”.
